Results reported in ChEMBL document CHEMBL3046134, “Synthesis and antiviral activity of benzimidazolyl- and triazolyl-1,3,5-triazines” (Med Chem Res, 2012).
Values after ≈ are worked out from the molar mass of the structure shown.

How the values were obtained:
Human alphaherpesvirus 1 = assay: Antiviral activity against Human herpesvirus 1 infected African green monkey Vero cells assessed as protection against virus-induced cytopathic effect after 3 days by plaque reduction assay; assay type: functional, organism-based; conditions: Human alphaherpesvirus 1, Vero, 72 h
[1] = Selectivity index, ratio of CC50 for african green monkey Vero cells to EC50 for HSV1 infected in African green monkey Vero cells
[2] = Cytotoxicity against Chlorocebus aethiops (African green monkey) Vero cells assessed as cell viability after 3 days by Alamar blue assay; assay type: cell-based; conditions: chlorocebus sabaeus

## Cc1ccc(Nc2nc(N)nc(CSc3nc4ccccc4[nH]3)n2)cc1
Human alphaherpesvirus 1
  EC50: > 10 µg/mL

## Cc1ccc2[nH]c(SCc3nc(N)nc(Nc4ccccc4C)n3)nc2c1
Human alphaherpesvirus 1
  EC50: > 10 µg/mL

## Nc1nc2c(ncn2COCCO)c(=O)[nH]1 [ACYCLOVIR]
[1]
  Ratio CC50/EC50: 850
Human alphaherpesvirus 1
  EC50: 1.5 µg/mL (≈ 6.66 µM)
[2]
  CC50 at 72 h: 1280 µg/mL (≈ 5660 µM)

## Cc1ccccc1Nc1nc(N)nc(CSc2nnc(-c3ccccc3)n2/N=C/c2ccccc2)n1
[1]
  Ratio CC50/EC50: 358
Human alphaherpesvirus 1
  EC50: 3.5 µg/mL (≈ 7.09 µM)
[2]
  CC50 at 72 h: 1250 µg/mL (≈ 2530 µM)

## COc1ccc(Nc2nc(N)nc(CSc3nnc(-c4ccncc4)n3-c3ccccc3)n2)cc1
[1]
  Ratio CC50/EC50: 215
Human alphaherpesvirus 1
  EC50: 7 µg/mL (≈ 14.5 µM)
[2]
  CC50 at 72 h: 1500 µg/mL (≈ 3100 µM)

## Cc1ccccc1Nc1nc(N)nc(CSc2nc3ccccc3[nH]2)n1
Human alphaherpesvirus 1
  EC50: 9 µg/mL (≈ 24.8 µM)
[2]
  CC50 at 72 h: > 2000 µg/mL

## COc1ccc(Nc2nc(N)nc(CSc3nc4ccccc4[nH]3)n2)cc1
Human alphaherpesvirus 1
  EC50: > 10 µg/mL

## Cc1ccc2[nH]c(SCc3nc(N)nc(Nc4ccccc4)n3)nc2c1
Human alphaherpesvirus 1
  EC50: > 10 µg/mL

## Cc1ccccc1Nc1nc(N)nc(CSc2nnc(-c3ccccc3)n2-c2ccccc2)n1
[1]
  Ratio CC50/EC50: 234
Human alphaherpesvirus 1
  EC50: 7.5 µg/mL (≈ 16.1 µM)
[2]
  CC50 at 72 h: 1750 µg/mL (≈ 3750 µM)

## Nc1nc(CSc2nc3ccccc3[nH]2)nc(Nc2ccc(Cl)cc2)n1
[1]
  Ratio CC50/EC50: 175
Human alphaherpesvirus 1
  EC50: 8.5 µg/mL (≈ 22.1 µM)
[2]
  CC50 at 72 h: 1500 µg/mL (≈ 3910 µM)

## Cc1ccccc1Nc1nc(N)nc(CSc2nnc(-c3ccccc3)n2/N=C/c2ccc(Br)cc2)n1
[1]
  Ratio CC50/EC50: 300
Human alphaherpesvirus 1
  EC50: 5 µg/mL (≈ 8.73 µM)
[2]
  CC50 at 72 h: 1500 µg/mL (≈ 2620 µM)

## COc1ccc(Nc2nc(N)nc(CSc3nnc(-c4ccccc4)n3/N=C/c3ccccc3)n2)cc1
[1]
  Ratio CC50/EC50: 188
Human alphaherpesvirus 1
  EC50: 8 µg/mL (≈ 15.7 µM)
[2]
  CC50 at 72 h: 1500 µg/mL (≈ 2940 µM)

## Cc1ccccc1Nc1nc(N)nc(CSc2nnc(-c3ccncc3)n2-c2ccccc2)n1
[1]
  Ratio CC50/EC50: 275
Human alphaherpesvirus 1
  EC50: 6 µg/mL (≈ 12.8 µM)
[2]
  CC50 at 72 h: 1650 µg/mL (≈ 3530 µM)

## COc1ccc(Nc2nc(N)nc(CSc3nnc(-c4ccccc4)n3-c3ccccc3)n2)cc1
Human alphaherpesvirus 1
  EC50: > 10 µg/mL

## Cc1ccc(Nc2nc(N)nc(CSc3nc4cc(C)ccc4[nH]3)n2)cc1
Human alphaherpesvirus 1
  EC50: > 10 µg/mL

## Nc1nc(CSc2nc3ccccc3[nH]2)nc(Nc2ccccc2)n1
Human alphaherpesvirus 1
  EC50: > 10 µg/mL
